Measurements reported in patent US8374794B1, “Protein synthesis modulators” (Rib-X Pharmaceuticals, Inc., priority 2003, dated 2013).

Biological target: T1, H. marismortui large ribosomal subunit (Haloarcula marismortui, UniProt P32411)
T1 construct: Ribosomes were purified and crystallized as described previously; endogenous in cells; host or cells: Haloarcula marismortui (ribosomes purified from the organism)
Experiment: X-ray diffraction of large ribosomal subunit crystals soaked with cycloheximide
Type: binding
Details: crystals soaked with about 30 mM cycloheximide, 1% DMSO, 4° C., 24 hours; difference Fourier maps at 3.0 A resolution
Procedure: The present invention is based, in part, upon the three-dimensional structure of cycloheximide when associated with the large ribosomal subunit. Crystals of the H. marismortui large ribosomal subunit were soaked with cycloheximide at a concentration of about 30 mM, which is equivalent to about […], and the structure of the large ribosome subunit complexed with cycloheximide was resolved via X-ray diffraction studies.
Briefly, a small amount of a concentrated cycloheximide solution was added to a large subunit crystal suspended in stabilization solution and incubated for several hours. Following freezing and the other procedures normally used to prepare such crystals for experimental use, X-ray diffraction data were collected from the cycloheximide containing crystals. […]
The atomic co-ordinates of the large ribosomal subunit associated with cycloheximide are recorded on compact disk, Disk No. 1, under file name cycloheximide.pdb. […]
Electron density corresponding to the antibiotic was first seen in Fo (antibiotic)-Fc (native) difference Fourier maps at 3.0 A resolution. […] The atomic co-ordinates defining the structure of cycloheximide when bound to the large ribosomal subunit are recorded on compact disk, Disk No. 1 under file name cycloheximide.pdb.

**Q.** With `C[C@@H]1C[C@@H]([C@H](O)CC2CC(=O)NC(=O)C2)C(=O)[C@@H](C)C1` (relative stereo) [cycloheximide, [1S-[1α(S*),3α,5β]]-4-[2-(3,5-dimethyl-2-oxocyclohexyl)-2-hydroxyethyl]-2,6-piperidinedione] as the compound, how does the “binding of cycloheximide in the large ribosomal subunit (specific vs. non-specific sites)” value read?
**A.** Its value is “bound to a single location in the large ribosomal subunit”.
